Laboratory results taken from patent US6951647B2, “T cell binding ligand peptides and method of inducing a cellular immune response” (Cel-Sci Corporation, priority 2001, dated 2005).
Where no end group is shown, it is not given here.

Settings: saline (0.15 M NaCl, pH 7.4) or WFI, 0.5-2.0 mg/ml; 2-8, 18-25 or 40 °C; pH 7.4 to 4.5; HPLC
Procedure: The long range stability of the peptide constructs formed using Peptide G, was carried out with the construct dissolved in saline (0.15 M NaCl, pH 7.4) or in water for injection (WFI) at a concentration of 0.5-2.0 mg/ml and stored frozen soon after preparation.

DGQEEKAGVVSTGLI [Peptide G′]
Long range stability (deamination) of peptide constructs: overcomes the long range stabilization problem of the peptide conjugates
